According to US10738056B2 (Aduro BioTech, Inc., priority 2017, dated 2020):

Columns and labels:
[1] = system: MCP-1/CCL2 secretion by Trex1-KO BMM; experiment: Inhibition of MCP-1/CCL2 secretion by Trex1-KO bone marrow-derived macrophages; type: cell-based, mice; parameters: key to BMM IC50 M (MCP-1): A: an IC50 value less than 5 μM; B: an IC50 value between 5 and 20 μM; where an IC50 value could not be calculated from the data; settings: MCP-1 secretion; for IC50: Mus musculus, Macrophage, read-out: BMM IC50 M (MCP-1)
Summary of the method: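 Bone marrow macrophages from Trex1-KO mice, differentiated with M-CSF, 1×10^5 cells/well, treated overnight at 37 °C with a compound dilution series in FBS-free medium. Secreted cytokine measured by cytometric bead array from a standard curve, normalized to DMSO; viability by CellTiter-Glo.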

[2] = system: cGAS/STING pathway in THP1 cells; experiment: THP1 cell-based cGAS/STING pathway activity assay (IRF-3-linked luciferase reporter); settings: Homo sapiens, THP-1
Summary of the method: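 THP1 cells carrying an IRF-3-driven luciferase reporter were read across a range of compound concentrations, and IC50 values were derived from these concentration responses; the assay upper limit was 100 μM.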

[3] = target: Human cGAS amino acids 155-522 (Homo sapiens (Human), UniProt Q8N884); experiment: cGAS biochemical activity assay (ATP remaining, Kinase-Glo Max luminescence); settings: human cGAS 155-522, ATP remaining (Kinase-Glo Max); read-out: cGAS IC50
Sequence of Human cGAS amino acids 155-522 (Q8N884 157-522): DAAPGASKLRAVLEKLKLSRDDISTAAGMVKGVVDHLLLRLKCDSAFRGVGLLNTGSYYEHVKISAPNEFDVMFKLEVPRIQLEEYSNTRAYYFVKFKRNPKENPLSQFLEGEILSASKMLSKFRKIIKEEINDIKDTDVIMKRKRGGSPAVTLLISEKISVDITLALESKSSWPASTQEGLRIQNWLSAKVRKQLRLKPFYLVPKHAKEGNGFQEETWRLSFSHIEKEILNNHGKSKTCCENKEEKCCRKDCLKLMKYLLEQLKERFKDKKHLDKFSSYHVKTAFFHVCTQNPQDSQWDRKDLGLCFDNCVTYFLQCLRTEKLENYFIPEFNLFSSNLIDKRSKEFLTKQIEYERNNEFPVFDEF

[4] = system: RANTES/CCL5 secretion by Trex1-KO BMM; experiment: Inhibition of RANTES/CCL5 secretion by Trex1-KO bone marrow-derived macrophages; type: cell-based, mice; parameters: key to BMM IC50 R (RANTES): A: an IC50 value less than 5 μM; B: an IC50 value between 5 and 20 μM; where an IC50 value could not be calculated from the data; settings: RANTES secretion; for IC50: Mus musculus, Macrophage, read-out: BMM IC50 R (RANTES)
Procedure: A cellular assay can be used to asses the compounds of the invention for their ability to inhibit cytokine production. Bone marrow macrophages harvested from mice can be used to determine response as a function of compound concentration.
The inhibition of secreted cytokine was measured in bone marrow-derived macrophages (BMMs) from diseased mice to evaluate the potency of compounds of the invention as described herein. […] To derive bone marrow macrophages, marrow extracted from the femurs and tibias were harvested from Trex1-KO mice was cultured in growth media supplemented with macrophage colony-stimulating factor (M-CSF). Differentiated BMM were harvested and frozen for subsequent experimentation. For treatment with compound C1089 (see Example 13), a frozen stock of Trex1-KO BMM was thawed and 1×10^5 cells were plated in 96 well format. BMMs were treated with a dilution series of C1089 and incubated overnight at 37° C. 5% CO2, at which point cellular supernatants were harvested and stored at −80° C. for subsequent analysis. The media used for this dilution series was without FBS. Remaining cells were evaluated for viability using Cell Titer Glo 2.0 kit according to the manufacturer instructions. BMM supernatants were evaluated for the secreted cytokine […] (RANTES/CCL5) or for secreted cytokine monocyte chemoattractant protein 1 (MCP-1/CCL2) using cytometric bead array mouse Flex Set kits (BD Biosciences). Cytokine concentration was calculated from a standard curve and normalized to vehicle (DMSO) treated cells.

Structure (SMILES)	BMM IC50 M (MCP-1) [1]	IC50 [2] [µM]	IC50 [3] [µM]	BMM IC50 R (RANTES) [4]	IC50 [4] [µM]	IC50 [1] [µM]
COc1cccc2oc(-c3c(C)[nH]c4c(-c5cc(F)cc(F)c5)c(C(F)(F)F)nn4c3=O)nc12 [Compound C1119, 3-(3,5-difluorophenyl)-6-(4-methoxybenzo[d]oxazol-2-yl)-5-methyl-2-(trifluoromethyl)pyrazolo[1,5-a]pyrimidin-7(4H)-one]	C	< 20	< 20	C	–	–
COc1cccc2oc(-c3c(Cl)[nH]c4c(-c5ccccc5)c(C(F)(F)F)nn4c3=O)nc12 [Compound C1071, 5-chloro-6-(4-methoxybenzo[d]oxazol-2-yl)-3-phenyl-2-(trifluoromethyl)pyrazolo[1,5-a]pyrimidin-7(4H)-one]	C	< 20	< 20	C	–	–
Cc1[nH]c2c(-c3ccccc3)c(C(F)(F)F)nn2c(=O)c1-c1nc2c(C(N)=O)cccc2o1 [Compound C1074, 2-(5-methyl-7-oxo-3-phenyl-2-(trifluoromethyl)-4,7-dihydropyrazolo[1,5-a]pyrimidin-6-yl)benzo[d]oxazole-4-carboxamide]	C	> 100	20 to 250	C	–	–
COc1ccc(Cl)c2oc(-c3c(C)[nH]c4c(-c5ccccc5)c(C(F)(F)F)nn4c3=O)nc12 [Compound C1094, 6-(7-chloro-4-methoxybenzo[d]oxazol-2-yl)-5-methyl-3-phenyl-2-(trifluoromethyl)pyrazolo[1,5-a]pyrimidin-7(4H)-one]	C	< 20	< 20	–	< 5	–
COc1cccc2oc(-c3c(CCC(=O)O)[nH]c4c(-c5ccccc5)c(C(F)(F)F)nn4c3=O)nc12 [Compound C1173, 3-(6-(4-methoxybenzo[d]oxazol-2-yl)-7-oxo-3-phenyl-2-(trifluoromethyl)-4,7-dihydropyrazolo[1,5-a]pyrimidin-5-yl)propanoic acid]	C	20 to 100	< 20	C	–	–
Cc1[nH]c2c(-c3ccccc3)c(C(F)(F)F)nn2c(=O)c1-c1nc2c(O)cccc2o1 [Compound C1053, 6-(4-hydroxybenzo[d]oxazol-2-yl)-5-methyl-3-phenyl-2-(trifluoromethyl)pyrazolo[1,5-a]pyrimidin-7(4H)-one]	C	20 to 100	< 20	C	–	–
COCc1[nH]c2c(-c3ccccc3)c(C(F)(F)F)nn2c(=O)c1-c1nnc(C2CCCC2)o1 [Compound D1018, 6-(5-cyclopentyl-1,3,4-oxadiazol-2-yl)-5-(methoxymethyl)-3-phenyl-2-(trifluoromethyl)pyrazolo[1,5-a]pyrimidin-7(4H)-one]	C	20 to 100	< 20	C	–	–
COc1c(C#N)ccc2oc(-c3c(C)[nH]c4c(-c5ccccc5)c(C(F)(F)F)nn4c3=O)nc12 [Compound C1126, 4-methoxy-2-(5-methyl-7-oxo-3-phenyl-2-(trifluoromethyl)-4,7-dihydropyrazolo[1,5-a]pyrimidin-6-yl)benzo[d]oxazole-5-carbonitrile]	C	20 to 100	< 20	C	–	–
Cc1[nH]c2c(-c3ccccc3)c(C(F)(F)F)nn2c(=O)c1-c1nc2c(OCC(=O)O)cccc2o1 [Compound C1117, 2-((2-(5-methyl-7-oxo-3-phenyl-2-(trifluoromethyl)-4,7-dihydropyrazolo[1,5-a]pyrimidin-6-yl)benzo[d]oxazol-4-yl)oxy)acetic acid]	C	> 100	< 20	C	–	–
COc1cccc2oc(-c3c(SC)[nH]c4c(-c5ccccc5)c(C(F)(F)F)nn4c3=O)nc12 [Compound C1121, 6-(4-methoxybenzo[d]oxazol-2-yl)-5-(methylthio)-3-phenyl-2-(trifluoromethyl)pyrazolo[1,5-a]pyrimidin-7(4H)-one]	–	< 20	< 20	C	–	< 5
COCc1[nH]c2c(-c3ccccc3)c(C#N)nn2c(=O)c1-c1nc2c(OC)cc(Cl)cc2o1 [Compound C1145, 6-(6-chloro-4-methoxybenzo[d]oxazol-2-yl)-5-(methoxymethyl)-7-oxo-3-phenyl-4,7-dihydropyrazolo[1,5-a]pyrimidine-2-carbonitrile]	C	< 20	< 20	C	–	–
COc1cccc2oc(-c3c(CSC)[nH]c4c(-c5ccccc5)c(C(F)(F)F)nn4c3=O)nc12 [Compound C1136, 6-(4-methoxybenzo[d]oxazol-2-yl)-5-((methylthio)methyl)-3-phenyl-2-(trifluoromethyl)pyrazolo[1,5-a]pyrimidin-7(4H)-one]	–	< 20	< 20	C	–	5 to 20
COc1cccc2oc(-c3c(C)[nH]c4c(-c5cccc(F)c5)c(C(F)(F)F)nn4c3=O)nc12 [Compound C1114, 3-(3-fluorophenyl)-6-(4-methoxybenzo[d]oxazol-2-yl)-5-methyl-2-(trifluoromethyl)pyrazolo[1,5-a]pyrimidin-7(4H)-one]	–	< 20	< 20	C	–	5 to 20

Other lines, results leading:

BMM IC50 M (MCP-1) [1]	IC50 [2] [µM]	IC50 [3] [µM]	BMM IC50 R (RANTES) [4]	IC50 [4] [µM]	IC50 [1] [µM]	Structure (SMILES)
C	> 100	< 20	C	–	–	COc1cc(Cl)cc2oc(-c3c(C)[nH]c4c(-c5ccccc5)c(C#N)nn4c3=O)nc12 [Compound C1160, 6-(6-chloro-4-methoxybenzo[d]oxazol-2-yl)-5-methyl-7-oxo-3-phenyl-4,7-dihydropyrazolo[1,5-a]pyrimidine-2-carbonitrile]
C	< 20	< 20	–	5 to 20	–	COCCOCc1[nH]c2c(-c3ccccc3)c(C(F)(F)F)nn2c(=O)c1-c1nc2c(OC)cccc2o1 [Compound C1151, 6-(4-methoxybenzo[d]oxazol-2-yl)-5-((2-methoxyethoxy)methyl)-3-phenyl-2-(trifluoromethyl)pyrazolo[1,5-a]pyrimidin-7(4H)-one]
C	< 20	< 20	C	–	–	COc1cccc2oc(-c3c(COCc4ccccc4)[nH]c4c(-c5ccccc5)c(C(F)(F)F)nn4c3=O)nc12 [Compound C1099, 5-((benzyloxy)methyl)-6-(4-methoxybenzo[d]oxazol-2-yl)-3-phenyl-2-(trifluoromethyl)pyrazolo[1,5-a]pyrimidin-7(4H)-one]
C	< 20	< 20	C	–	–	COc1ccc(N)c2oc(-c3c(C)[nH]c4c(-c5ccccc5)c(C(F)(F)F)nn4c3=O)nc12 [Compound C1154, 6-(7-amino-4-methoxybenzo[d]oxazol-2-yl)-5-methyl-3-phenyl-2-(trifluoromethyl)pyrazolo[1,5-a]pyrimidin-7(4H)-one]
–	< 20	< 20	–	< 5	< 5	COc1cc(Cl)cc(NC(=O)c2c(C)[nH]c3c(-c4ccccc4)c(C(F)(F)F)nn3c2=O)c1 [Compound A1134, N-(3-chloro-5-methoxyphenyl)-5-methyl-7-oxo-3-phenyl-2-(trifluoromethyl)-4,7-dihydropyrazolo[1,5-a]pyrimidine-6-carboxamide]
C	20 to 100	< 20	C	–	–	Cc1[nH]c2c(-c3ccccc3)c(C(F)(F)F)nn2c(=O)c1-c1nc(C(=O)O)c(C2CCCCC2)o1 [Compound C1169, 5-cyclohexyl-2-(5-methyl-7-oxo-3-phenyl-2-(trifluoromethyl)-4,7-dihydropyrazolo[1,5-a]pyrimidin-6-yl)oxazole-4-carboxylic acid]
–	< 20	< 20	–	5 to 20	5 to 20	COCc1[nH]c2c(-c3ccccc3)c(C#N)nn2c(=O)c1-c1nc2c(OC)cccc2o1 [Compound C1139, 6-(4-methoxybenzo[d]oxazol-2-yl)-5-(methoxymethyl)-7-oxo-3-phenyl-4,7-dihydropyrazolo[1,5-a]pyrimidine-2-carbonitrile]
